Experimental data: patent US20230002367A1, “BIFUNCTIONAL COMPOUNDS” (Hoffmann-La Roche Inc., priority 2019, published 2023)
Read-outs that look alike come from different tables or passages of the source.

Biological target: T1, SMARCA2 (Homo sapiens, UniProt P51531)
T1 construct: endogenous in cells
Assay: SMARCA2 HiBiT degradation assay (cellular)
Type: cell-based
Details: for DC50: read-out: HiBit A549 SMARCA2 IP

[1] = A549, Emax = amount of residual protein remaining in the cell following compound treatment
[2] = SMARCA2 HiBiT cells, luminescence readout, 11-point titration from 10 μM, 6 hours or 16 hours

T1 sequence (P51531 whole entry): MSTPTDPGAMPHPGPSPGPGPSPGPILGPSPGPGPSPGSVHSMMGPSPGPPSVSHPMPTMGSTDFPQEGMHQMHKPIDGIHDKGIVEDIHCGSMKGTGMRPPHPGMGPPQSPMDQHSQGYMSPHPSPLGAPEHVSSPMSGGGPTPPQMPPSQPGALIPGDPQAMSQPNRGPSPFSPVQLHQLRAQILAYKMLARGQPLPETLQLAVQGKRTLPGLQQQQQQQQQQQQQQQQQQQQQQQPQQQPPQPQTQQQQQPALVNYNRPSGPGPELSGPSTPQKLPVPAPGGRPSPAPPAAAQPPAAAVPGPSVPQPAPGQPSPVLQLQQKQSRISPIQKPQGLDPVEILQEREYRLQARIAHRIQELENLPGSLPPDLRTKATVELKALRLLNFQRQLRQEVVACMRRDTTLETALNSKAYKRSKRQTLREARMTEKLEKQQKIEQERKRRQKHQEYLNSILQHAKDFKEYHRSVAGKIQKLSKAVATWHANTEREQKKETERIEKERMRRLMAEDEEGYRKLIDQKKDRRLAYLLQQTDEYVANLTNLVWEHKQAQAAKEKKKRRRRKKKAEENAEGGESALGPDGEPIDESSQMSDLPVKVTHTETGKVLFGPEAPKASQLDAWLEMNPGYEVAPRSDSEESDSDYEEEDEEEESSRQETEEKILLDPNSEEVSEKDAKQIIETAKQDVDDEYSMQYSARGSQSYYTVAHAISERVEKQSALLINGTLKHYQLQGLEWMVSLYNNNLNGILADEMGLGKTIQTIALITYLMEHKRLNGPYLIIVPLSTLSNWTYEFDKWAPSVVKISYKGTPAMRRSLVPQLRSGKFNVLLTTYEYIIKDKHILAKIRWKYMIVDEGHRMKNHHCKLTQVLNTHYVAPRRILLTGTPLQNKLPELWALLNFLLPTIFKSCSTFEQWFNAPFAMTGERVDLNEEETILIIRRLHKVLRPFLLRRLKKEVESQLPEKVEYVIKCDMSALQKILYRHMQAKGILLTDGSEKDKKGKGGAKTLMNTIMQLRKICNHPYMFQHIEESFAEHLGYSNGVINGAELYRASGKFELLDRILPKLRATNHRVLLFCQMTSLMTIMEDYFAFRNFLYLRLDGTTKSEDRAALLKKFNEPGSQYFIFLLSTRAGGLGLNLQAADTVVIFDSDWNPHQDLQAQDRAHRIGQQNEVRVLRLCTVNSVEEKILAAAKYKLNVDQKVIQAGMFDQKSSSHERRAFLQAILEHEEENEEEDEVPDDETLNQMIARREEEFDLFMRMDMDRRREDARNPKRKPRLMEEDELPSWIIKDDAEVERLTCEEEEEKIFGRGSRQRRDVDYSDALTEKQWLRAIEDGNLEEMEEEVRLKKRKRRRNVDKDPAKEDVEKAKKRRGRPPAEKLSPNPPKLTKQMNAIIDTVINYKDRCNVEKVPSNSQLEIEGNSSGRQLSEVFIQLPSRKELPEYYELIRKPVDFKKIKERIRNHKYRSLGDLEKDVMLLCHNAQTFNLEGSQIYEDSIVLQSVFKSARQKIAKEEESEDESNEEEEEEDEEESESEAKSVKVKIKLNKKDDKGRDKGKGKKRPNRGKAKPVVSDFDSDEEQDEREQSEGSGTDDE

| Emax [1] | DC50 [2] | SMILES | Emax (A549, different HIBIT SMARCA2 clone (footnote a), residual protein remaining) | DC50 (different HIBIT SMARCA2 clone (footnote a)) |
| --- | --- | --- | --- | --- |
| 59% | 827 nM | Cc1ncsc1-c1ccc(CNC(=O)[C@@H]2C[C@@H](O)CN2C(=O)[C@@H](NC(=O)CCCCCCCCC(=O)N2CCC(CNC(=O)C3(c4ccccc4)CCN(c4cc(-c5ccccc5O)nnc4N)CC3)CC2)C(C)(C)C)cc1 [Example 99, 1-[3-amino-6-(2-hydroxyphenyl)pyridazin-4-yl]-N-[[1-[10-[[(1S)-1-[(2S,4R)-4-hydroxy-2-[[4-(4-methylthiazol-5-yl)phenyl]methylcarbamoyl]pyrrolidine-1-carbonyl]-2,2-dimethyl-propyl]amino]-10-oxo-decanoyl]-4-piperidyl]methyl]-4-phenyl-piperidine-4-carboxamide] |  |  |
| 62% | 998 nM | Cc1ncsc1-c1ccc(CNC(=O)[C@@H]2C[C@@H](O)CN2C(=O)[C@@H](NC(=O)CCCCCCCCC(=O)N2CCN(c3ccc(N4CCCC(Oc5cc(-c6ccccc6N)nnc5N)C4)cc3)CC2)C(C)(C)C)cc1 (stereo partly drawn) [Example 100, (2S,4R)-1-[(2S)-2-[[10-[4-[4-[3-[3-amino-6-(2-aminophenyl)pyridazin-4-yl]oxy-1-piperidyl]phenyl]piperazin-1-yl]-10-oxo-decanoyl]amino]-3,3-dimethyl-butanoyl]-4-hydroxy-N-[[4-(4-methylthiazol-5-yl)phenyl]methyl]pyrrolidine-2-carboxamide] |  |  |
| 38% | 101 nM | Cc1ncsc1-c1ccc([C@H](C)NC(=O)[C@@H]2C[C@@H](O)CN2C(=O)[C@@H](NC(=O)CCCCCCCCC(=O)N2CCN(C(=O)c3cccc(OC4CN(c5cc(-c6ccccc6O)nnc5N)C4)c3)CC2)C(C)(C)C)cc1 [Example 101, (2S,4R)-1-[(2S)-2-[[10-[4-[3-[1-[3-amino-6-(2-hydroxyphenyl)pyridazin-4-yl]azetidin-3-yl]oxybenzoyl]piperazin-1-yl]-10-oxo-decanoyl]amino]-3,3-dimethyl-butanoyl]-4-hydroxy-N-[(1S)-1-[4-(4-methylthiazol-5-yl)phenyl]ethyl]pyrrolidine-2-carboxamide] |  |  |
| 60% | 1890 nM | Cc1ncsc1-c1ccc([C@H](C)NC(=O)[C@@H]2C[C@@H](O)CN2C(=O)[C@@H](NC(=O)CCCCCC(=O)N2CCN(C(=O)c3ccc(OC4CN(c5cc(-c6ccccc6O)nnc5N)C4)cc3)CC2)C(C)(C)C)cc1 [Example 103, (2S,4R)-1-[(2S)-2-[[7-[4-[4-[1-[3-amino-6-(2-hydroxyphenyl)pyridazin-4-yl]azetidin-3-yl]oxybenzoyl]piperazin-1-yl]-7-oxo-heptanoyl]amino]-3,3-dimethyl-butanoyl]-4-hydroxy-N-[(1S)-1-[4-(4-methylthiazol-5-yl)phenyl]ethyl]pyrrolidine-2-carboxamide] |  |  |
| 54% | 375 nM | Cc1ncsc1-c1ccc([C@H](C)NC(=O)[C@@H]2C[C@@H](O)CN2C(=O)[C@@H](NC(=O)CCCCCCCCC(=O)N2CCN(C(=O)c3ccc(OC4CN(c5cc(-c6ccccc6O)nnc5N)C4)cc3)CC2)C(C)(C)C)cc1 [Example 104, (2S,4R)-1-[(2S)-2-[[10-[4-[4-[1-[3-amino-6-(2-hydroxyphenyl)pyridazin-4-yl]azetidin-3-yl]oxybenzoyl]piperazin-1-yl]-10-oxo-decanoyl]amino]-3,3-dimethyl-butanoyl]-4-hydroxy-N-[(1S)-1-[4-(4-methylthiazol-5-yl)phenyl]ethyl]pyrrolidine-2-carboxamide] |  |  |
| 40% | 923 nM | Cc1ncsc1-c1ccc([C@H](C)NC(=O)[C@@H]2C[C@@H](O)CN2C(=O)[C@@H](NC(=O)CCCCCC(=O)N2CCN(Cc3cccc(CCOc4cc(-c5ccccc5O)nnc4N)c3)CC2)C(C)(C)C)cc1 [Example 105, (2S,4R)-1-[(2S)-2-[[7-[4-[[3-[2-[3-amino-6-(2-hydroxyphenyl)pyridazin-4-yl]oxyethyl]phenyl]methyl]piperazin-1-yl]-7-oxo-heptanoyl]amino]-3,3-dimethyl-butanoyl]-4-hydroxy-N-[(1S)-1-[4-(4-methylthiazol-5-yl)phenyl]ethyl]pyrrolidine-2-carboxamide] |  |  |
| 39% | 346 nM | Cc1ncsc1-c1ccc([C@H](C)NC(=O)[C@@H]2C[C@@H](O)CN2C(=O)[C@@H](NC(=O)CCCCCCCCC(=O)N2CCN(Cc3cccc(CCOc4cc(-c5ccccc5O)nnc4N)c3)CC2)C(C)(C)C)cc1 [Example 106, (2S,4R)-1-[(2S)-2-[[10-[4-[[3-[2-[3-amino-6-(2-hydroxyphenyl)pyridazin-4-yl]oxyethyl]phenyl]methyl]piperazin-1-yl]-10-oxo-decanoyl]amino]-3,3-dimethyl-butanoyl]-4-hydroxy-N-[(1S)-1-[4-(4-methylthiazol-5-yl)phenyl]ethyl]pyrrolidine-2-carboxamide] |  |  |
|  |  | Cc1ncsc1-c1ccc(CNC(=O)[C@@H]2C[C@@H](O)CN2C(=O)[C@@H](NC(=O)CCCCCCCCC(=O)N2CCN(Cc3cccc(N4C5CCC4CN(c4cc(-c6cc(F)ccc6O)nnc4N)C5)c3)CC2)C(C)(C)C)cc1 [Example 107, (2S,4R)-1-[(2S)-2-[[10-[4-[[3-[3-[3-amino-6-(5-fluoro-2-hydroxy-phenyl)pyridazin-4-yl]-3,8-diazabicyclo[3.2.1]octan-8-yl]phenyl]methyl]piperazin-1-yl]-10-oxo-decanoyl]amino]-3,3-dimethyl-butanoyl]-4-hydroxy-N-[[4-(4-methylthiazol-5-yl)phenyl]methyl]pyrrolidine-2-carboxamide] | 18% | 82 nM |

| SMILES | Emax [1] | DC50 [2] | Emax (A549, different HIBIT SMARCA2 clone (footnote a), residual protein remaining) | DC50 (different HIBIT SMARCA2 clone (footnote a)) |
| --- | --- | --- | --- | --- |
| Cc1ncsc1-c1ccc(CNC(=O)[C@@H]2C[C@@H](O)CN2C(=O)[C@@H](NC(=O)CCCCCCCCCC(=O)N2CCN(Cc3cccc(N4C5CCC4CN(c4cc(-c6ccccc6N)nnc4N)C5)c3)CC2)C(C)(C)C)cc1 [Example 102, (2S,4R)-1-[(2S)-2-[[11-[4-[[3-[3-[3-amino-6-(2-aminophenyl)pyridazin-4-yl]-3,8-diazabicyclo[3.2.1]octan-8-yl]phenyl]methyl]piperazin-1-yl]-11-oxo-undecanoyl]amino]-3,3-dimethyl-butanoyl]-4-hydroxy-N-[[4-(4-methylthiazol-5-yl)phenyl]methyl]pyrrolidine-2-carboxamide] | 59% | 992 nM |  |  |
| Cc1ncsc1-c1ccc(CNC(=O)[C@@H]2C[C@@H](O)CN2C(=O)[C@@H](NC(=O)CCCCCCCCCC(=O)N2CCN(CCOc3cccc(N4CC5CCC(C4)N5c4cc(-c5cc(F)ccc5O)nnc4N)c3)CC2)C(C)(C)C)cc1 [Example 110, (2S,4R)-1-[(2S)-2-[[11-[4-[2-[3-[8-[3-amino-6-(5-fluoro-2-hydroxy-phenyl)pyridazin-4-yl]-3,8-diazabicyclo[3.2.1]octan-3-yl]phenoxy]ethyl]piperazin-1-yl]-11-oxo-undecanoyl]amino]-3,3-dimethyl-butanoyl]-4-hydroxy-N-[[4-(4-methylthiazol-5-yl)phenyl]methyl]pyrrolidine-2-carboxamide] | 76% | 760 nM |  |  |
